Literature values, collected in patent publication US20100056488A1, “CORTICOSTEROID CONJUGATES AND USES THEREOF” (The McLean Hospital Corporation, priority 2002, published 2010).

Key:
[1] = tested on: cortisol production or ACTH; details: suppression of cortisol production or ACTH
[2] = tested on: corticosterone production; details: suppression for 24 hours
[3] = tested on: ether-stress induced increase in corticosterone; details: dose 0.025 mg/kg; higher dose necessary to fully eliminate response

CNS activity [1] | SMILES | lowest dose fully effective in suppressing basal corticosterone production [2] | suppression of ether-stress induced increase in corticosterone [3]
CNS active | C[C@]12CCC(=O)C=C1CC[C@@H]1[C@@H]2[C@@H](O)C[C@@]2(C)[C@H]1CC[C@]2(O)C(=O)COC(=O)CCC(=O)O [Hydrocortisone sodium succinate] | – | –
– | C[C@@H]1C[C@H]2[C@@H]3CCC4=CC(=O)C=C[C@]4(C)[C@@]3(F)[C@@H](O)C[C@]2(C)[C@@]1(O)C(=O)CO [dexamethasone] | 0.025 mg/kg | significantly suppressed
